The subject of experiment [1] is FKB-3 (DNA, aptamer) CGAGCATAGGCAGAACTTACCACACAGCGTACCTCGTAGCCATGCGCCGTTGGGTCGTAAGAGCGAGTCATTC
The experiment is described as follows: gel elution assay. The following applies: 20 mM NaCl, 0.5 mM MgCl2; for binding: 10 mM Tris-HCl pH 7.4, displacement from cDNA-bio.

For experiment [2], the system named is FKB-1 (DNA, aptamer) CGAGCATAGGCAGAACTTACCACCAAGTGAGGGTGTACGGTGGCTTACGCTTGGTCGTAAGAGCGAGTCATTC
In words: gel elution assay. Particulars: 20 mM NaCl, 0.5 mM MgCl2; for binding: 10 mM Tris-HCl pH 7.4, displacement from cDNA-bio, tested at 100 µM.

For experiment [3], the system named is FKB-2 (DNA, aptamer) CGAGCATAGGCAGAACTTACCACGAGGACGGGTCAGTGCGTTAGGTGCCCACAGTCGTAAGAGCGAGTCATTC
In words: gel elution assay. Particulars: 20 mM NaCl, 0.5 mM MgCl2; for binding: 10 mM Tris-HCl pH 7.4, displacement from cDNA-bio.

For experiment [4], the system named is FKB-S-5'FAM (DNA, aptamer) CTTACCACCAAGTGAGGGTGTACGGTGGCTTACGCTTGGTCGTAAG
In words: microscale thermophoresis. Particulars: 20 mM NaCl, 0.5 mM MgCl2; 10 mM Tris-HCl pH 7.4, 5% DMSO, 0.05% Tween-20.

For experiment [5], the system named is FKB-S (DNA, aptamer) CTTACCACCAAGTGAGGGTGTACGGTGGCTTACGCTTGGTCGTAAG
The experiment is described as follows: AuNP aggregation colorimetric assay. The following applies: NaCl (20 µL of 400 mM added after compound), room temperature, indirect readout.

In experiment [6] the test system is FKB-1-5'FAM (DNA, aptamer) CGAGCATAGGCAGAACTTACCACCAAGTGAGGGTGTACGGTGGCTTACGCTTGGTCGTAAGAGCGAGTCATTC
The experiment is described as follows: microscale thermophoresis. The following applies: 20 mM NaCl, 0.5 mM MgCl2; 10 mM Tris-HCl pH 7.4, 5% DMSO, 0.05% Tween-20. (In general: Microscale thermophoresis detects binding through changes in fluorescence in a small temperature gradient.)

Where [7] appears, read: 10 mM Tris-HCl pH 7.4, room temperature, displaced from cDNA-bio, apparent.

As to `COc1cc(O)c(C(=O)/C=C/c2ccc(O)cc2)c(OC)c1`, the binding result in experiment [1] was “weak”; in experiment [2], “no”; in experiment [3], “weak”; in experiment [4] it was “weak”.
On to `COc1cc(O)c(C(=O)/C=C/c2ccccc2)c(OC)c1`, for which the binding entry in experiment [5] (FKB 0-5 μM) is given as “yes”. The KD in experiment [6] is 1.45 µM; in experiment [1] (setting [7]) it was 40.5 µM; in experiment [2] (setting [7]), 2.87 µM; in experiment [3] (setting [7]), 9.97 µM; in experiment [4], 0.28 µM.
Consider `COc1ccc(/C=C/C(=O)c2c(O)cc(OC)cc2OC)cc1`, for which the binding result in experiment [1] was “weak”; in experiment [2], “no”; in experiment [3] it was “weak”; in experiment [4], “weak”.
In the case of `O=C(/C=C/c1ccc(O)cc1)c1ccc(O)cc1O`, in experiment [2], the binding entry was “no”.
For the molecule `O=C1c2cccc(O)c2C(=O)c2c(O)cc(CO)cc21`, the binding result in experiment [2] is “no”.
For `O=c1c(O)c(-c2cc(O)c(O)c(O)c2)oc2cc(O)cc(O)c12`, the binding entry in experiment [5] and in experiment [2] was “no” each time.
`O=c1c(O)c(-c2ccc(O)c(O)c2)oc2cc(O)cc(O)c12`: the binding entry in experiment [5] and in experiment [2] was “no” throughout.

For the origin of these results see PMC11768667 (2025).
